Columns and labels:
[1] = in words, prior art; cited from earlier work
[2] = system: morphine effect in rat tail flick; test: Narcotic antagonist activity (modified rat tail flick test, antagonism of morphine); format: in vivo, male albino Wistar rats; details: for ED50: Rattus norvegicus, ip, 20 min, test drug intraperitoneally, rats, ED80 dose of morphine s.c. ten minutes later, retested 20 minutes after morphine, read-out: AD50 (the source's name)
Method: The narcotic anatagonist effects of test compounds were determined by a modification of the rat tail flick procedure of Harris and Pierson (J. Pharmacol. Exp. Ther. 143: 141 [1964]).
Male albino Wistar rats (100-120 g) were used for this study. A rat's tail is so placed so as to cover a photocell. Heat is applied by a lamp in a reflector with a timer being connected to the lamp and photocell so that the timer goes on when the light is turned on and is turned off when the photocell is uncovered. A rheostat, incorporated into a heating lamp, is used to adjust the intensity of the light fallng on the tail of the rat such that the rat's control reaction time is from two to four seconds. Animals with a control reaction time outside this range are rejected. The rheostat adjustment is made only if a significant proportion (more than 1 out of every 10 rats) of the reaction times are outside the range of 1.8 to 5.8 seconds. Groups of five rats were used each time, and two control times were determined at least 30 minutes apart. The test drug was given intraperitoneally and this was followed ten minutes later by an ED80 dose of morphine subcutaneously. The animals were retested at 20 minutes after the morphine injection. Control animals were given morphine only.
The data were calculated as follows: [formula]
The data were plotted on log-probit paper and AD50 values, i.e., the dose required to inhibit the morphine effect by 50% within 95% confidence limits, were determined by the method of Litchfield and Wilcoxon.

[3] = system: acetic acid induced writhing in mice; test: Acetic acid mouse writhing test (analgesic effect); format: in vivo, male CD-1 mice; details: for ED50: Mus musculus, sc, subcutaneous, mice, acetic acid i.p. 15 minutes post drug, writhes in 20 minute interval; for ED50/AD50: ratio of mouse writhing ED50 to rat tail flick AD50
Method: The analgesic effects of test compounds were determined in mice by use of the acetic acid writhing test described by B. J. R. Whittle, Brit. J. Pharmacol., 22: 296 (1964). In this test at least three groups of five male CD-1 mice each were given subcutaneous doses of the test drug dissolved in either distilled water or distilled water acidified with HCl depending on the solubility of the compound. In all cases, 0.4 milliliter of a 0.75% V/V acetic acid in distilled water solution was administered intraperitoneally 15 minutes post drug. The number of writhes in a 20 minute interval were determined and compared with the number of writhes in control groups which had received only acetic acid.
Percent inhibition of writhing was calculated as: [formula]
The ED50 dose, i.e., the dose required to reduce the number of writhes by 50%, was determined graphically from a plot of % inhibition as a probit versus log dose. Confidence limits of 95% were calculated on the basis of those results falling in the range 16-84% inhibition. See Litchfield, J. T. and Wilcoxon, F., J. Pharmacol. Exp. Ther., 96, 99-113, (1949).

For O=C1CCC2(O)C3Cc4ccc(O)cc4C2(CCN3CC2CC2)C1 (stereo not shown), the duration of action [1] is listed as “very long acting” and the “potency relative to A, cyclazocine or naloxone” value [1] is listed as “more potent than A (above), cyclazocine or naloxone”.

With COc1ccc2c(c1)[C@]13CCN(CC4CC4)[C@H](C2)[C@]1(O)CCC(=O)C3.Cl [179-A-19, 17-cyclopropylmethyl-14-hydroxy-3-methoxymorphinan-6-one hydrochloride] the ED50 [2] was 0.5 mg/kg, the “more potent as an analgesic, by a factor” value ([3]; 179-A-19 versus 179-A-20) was “greater than 7” and the ED50 [3] was 0.3 mg/kg. The ED50/AD50 [3] was 0.6.

For Cl.O=C1CC[C@@]2(O)[C@H]3Cc4ccc(O)cc4[C@@]2(CCN3CC2CC2)C1 [179-A-20, 17-cyclopropylmethyl-3,14-dihydroxymorphinan-6-one hydrochloride], the “more potent in terms of narcotic antagonist activity, by a factor” value ([2]; 179-A-20 versus 179-A-19) was “about 6”, the ED50 [2] was 0.082 mg/kg and the ED50 [3] was 2.2 mg/kg. The ED50/AD50 [3] was 26.83.

For Oc1ccc2c(c1)C13CCCCC1(O)C(C2)N(CC1CC1)CC3 (stereo not shown) [A], the “analgesic / narcotic antagonist activity” value [1] is given as “essentially a narcotic antagonist”.

In the case of Oc1ccc2c(c1)C13CCCCC1(O)C(C2)N(CC1CCC1)CC3 (stereo not shown) [B], the “analgesic / narcotic antagonist activity” value [1] is listed as “both analgesic and narcotic antagonist activity”.

In the case of C[C@H]1[C@H]2Cc3ccc(O)cc3[C@]1(C)CCN2CC1CC1 [cyclazocine], the “analgesic / narcotic antagonist activity” value [1] is listed as “mixed analgesic/narcotic antagonist activity”.
